Data published in publication PMC5656322, “BAK1 is involved in AtRALF1-induced inhibition of root cell expansion” (PLoS Genetics, 2017).
Where no end group is shown, it is not given here.

How the values were obtained:
BAK1 gene = BAK1 gene expression in roots (semi-quantitative RT-PCR and qRT-PCR); format: in vivo, Arabidopsis thaliana; details: 1 μM, 1 h, Arabidopsis seedlings
Experimental: Arabidopsis plants were grown for 10 days in vertical plates and then treated in liquid medium containing 1 μM AtRALF1 for 1 h at room temperature. Control plants were incubated under identical conditions in a peptide-free medium. The total RNA was isolated from the roots of Arabidopsis plants using TRIzol reagent according to the manufacturer’s instructions (Life Technologies). The cDNA was synthesized using the ImProm-II Reverse Transcription System (Promega) and 1 μg of RNA. An aliquot of cDNA (1.5 μl) was used as the template in the PCR reaction, which was performed for 29 cycles, unless indicated otherwise, using gene-specific primers (S1 Table). The glyceraldehyde 3-phosphate dehydrogenase (GAPDH) gene was used as an internal control. All experiments were repeated at least three times with independent biological replicates. The data shown are from one representative experiment.
The qRT-PCR analysis was performed using 10-fold-diluted cDNA, Maxima SYBR Green Rox/qPCR Master Mix (Thermo Scientific) and a StepOne Real-Time PCR System (Applied Biosystems). The glyceraldehyde 3-phosphate dehydrogenase (GAPDH) gene was used as an internal control. […] The threshold cycle (CT) was determined by the instrument, and the ΔΔCT method was used to calculate the fold change in each gene. […] Three replicates were analyzed for each biological sample, and two biological samples were analyzed. […]

BAK1-GFP = assay: BAK1 protein accumulation, protein blot anti-GFP; format: in vivo, Arabidopsis thaliana; details: pBAK1:BAK1-GFP plants, 1 μM
Experimental: Fig 4 The BAK1 gene is induced by AtRALF1. (A) BAK1 gene expression in the roots of Arabidopsis seedlings (10-days-old) treated with AtRALF1. Root tissues were collected 1 h after treatment. Semi-quantitative RT-PCR and qRT-PCR were performed using total RNA extracted from the roots of untreated (-) or treated (+) plants. GAPDH expression was used as an internal control. (B) Quantification of GFP fluorescence intensity. The values are the mean ± SD of 20 seedlings. Student’s t test was used to compare the values obtained from treated and untreated seedlings. Double asterisk indicates P < 0.05 (Student’s t test); ns, not significant. (C) Representative confocal images of pBAK1:BAK1-GFP seedlings (4 days old) treated with 1 μM AtRALF1. Images were captured 4 h after treatment and were obtained by scanning 10 slices over a distance of 7 μm. MZ, meristematic zone; EZ, elongation zone; DZ, Differentiation zone. Bars, 100 μm. (D) pBAK1:BAK1-GFP plants were treated with water or 1 μM AtRALF1. After treatment, protein extracts from pBAK1:BAK1-GFP roots were subjected to immunoblot analysis with anti-GFP antibody. Ponceau was used to show equal loading of protein.

[1] = system: BAK1 gene promoter / BAK1-GFP; assay: Quantification of GFP in roots of pBAK1:BAK1-GFP plants; format: in vivo, Arabidopsis thaliana; details: 1 μM, 4 h
Experimental: Transgenic Arabidopsis plants were grown for 4 days in liquid medium and treated with 1 μM AtRALF1 for 4 h. After 4 h of agitation at room temperature, the intensity of GFP in the roots was analyzed by confocal microscopy (Olympus FV1000). Control plants were kept in a peptide-free medium. The GFP excitation wavelength was 488 nm, and the emission wavelength was 540 nm. Images were generated by a scanner depth of 7 μm. Ten slices per root were generated and compacted in one image. Image processing was performed using the Olympus FluoView software. An average of 20 seedlings were observed under the microscope in at least 3 different experiments using independent biological replicates.

[2] = system: extracellular domain of BAK1 (BAK1-ECD); assay: Yeast two-hybrid with BAK1-ECD; format: binding, Arabidopsis thaliana; details: yeast AH109, medium lacking Leu, Trp, His
Excerpt: Fig 6 AtRALF1 interacts physically with BAK1 protein. (A) The active AtRALF1 peptide interacts with the extracellular domain (ECD) of BAK1 (BAK1-ECD) in yeast. The AtRALF1 protein fused to the GAL4 DNA-binding domain (AtRALF1-pGBKT7) was used as bait to test its interaction with the extracellular domain of the proteins fused to the GAL4 activation domain (pGADT7): BAK1 (BAK1-ECD), BAK7 (BAK7-ECD), BRI1 (BRI1-ECD) and FLS2 (FLS2-ECD). (B) Blueprint showing the truncated proteins from the extracellular domain of BAK1 tested in the two-hybrid assay. The extracellular domain of BAK1 comprises leucine zippers (LZ), 5 leucine rich-regions (LRRs) and a proline-rich region (pro-rich). (C) AtRALF1-pGBKT7 was used as bait to test its interaction with truncated proteins fused to the GAL4 activation domain (pGADT7). […] HA-BAK1-ECD was detected with an anti-HA antibody. AtRALF1 was detected with an anti-RALF antibody. […] BAK1-GFP was detected with an anti-GFP antibody. […]
The coding regions of the mature peptides AtRALF1 and AtRALF34 were amplified from Arabidopsis genomic DNA and fused to the GAL4 DNA-binding domain and the MYC epitope tag using the NdeI/BamHI sites in the pGBKT7 (Clontech) vector. […] The proteins fused to the HA and MYC epitope tags were detected by protein blotting. […]

Substance: AtRALF1: root-specific RALF isoform in Arabidopsis; recombinant peptide hormone produced in E. coli (ATTKYISYQSLKRNSVPCSRRGASYYNCQNGAQANPYSRGCSKIARCRS; ends and bridges not checked; cysteine pairing not given here)
- BAK1 gene expression in roots (BAK1 gene): induced BAK1 gene expression in the roots up to levels found in untreated p35S:AtRALF1 roots
- BAK1 protein accumulation (BAK1-GFP): BAK1 protein accumulation was also verified by protein blot
- BAK1-GFP fluorescent signal in roots [1]: quantitative increase in fluorescent signal in the roots
- interaction with BAK1-ECD (Y2H complementation) [2]: able to complement only the BAK1-ECD construct
